Data: ChEMBL document CHEMBL1147921, “SAR studies on thiazolo[4,5-d]pyrimidine based CXCR2 antagonists involving a novel tandem displacement reaction” (Bioorg Med Chem Lett, 2007)
≈ marks a conversion by molar mass, not a printed value.

Experiments:
[1] = molecular target: T1, C-X-C chemokine receptor type 2 (Homo sapiens, UniProt P25025); assay: Displacement of [125I]IL8 from human CXCR2 expressed in HEK 293 by SPA; type: cell-based, HEK293
T1 sequence (P25025 whole entry): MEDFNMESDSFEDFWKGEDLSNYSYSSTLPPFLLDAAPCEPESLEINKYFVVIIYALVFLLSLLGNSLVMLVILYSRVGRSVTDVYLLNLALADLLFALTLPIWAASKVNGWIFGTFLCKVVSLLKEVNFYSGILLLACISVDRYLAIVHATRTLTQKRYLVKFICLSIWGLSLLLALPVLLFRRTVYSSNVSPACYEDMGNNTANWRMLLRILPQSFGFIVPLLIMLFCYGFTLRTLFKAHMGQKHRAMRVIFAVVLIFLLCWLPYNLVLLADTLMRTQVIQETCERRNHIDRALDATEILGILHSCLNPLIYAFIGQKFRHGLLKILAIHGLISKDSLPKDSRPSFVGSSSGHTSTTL

[2] = Protein binding in human plasma; type: ADME, cell-free; conditions: read-out: PPB (converted)
[3] = Permeability across human Caco-2 cell membrane; type: ADME, cell-based; conditions: read-out: permeability
[4] = molecular target: T1, C-X-C chemokine receptor type 2; assay: Antagonistic activity against human CXCR2 in neutrophils assessed as blockade of GROalpha stimulated calcium mobilisation by FLIPR; type: functional
[5] = Permeability from basolateral to apical side of the human Caco-2 cell membrane; type: ADME, cell-based; conditions: read-out: permeability
[6] = Half life in iv dosed rat; type: ADME, organism-based; conditions: in vivo
[7] = Bioavailability in po dosed rat; type: ADME, organism-based; conditions: in vivo
[8] = Volume of distribution at steady state in iv dosed rat; type: ADME, organism-based; conditions: in vivo, read-out: Vss
[9] = Solubility at pH 7.4; type: physicochemical; conditions: buffer
[10] = Permeability from apical to basolateral side of the human Caco-2 cell membrane; type: ADME, cell-based; conditions: read-out: permeability

| Structure (SMILES) | IC50 [1] | other results |
| --- | --- | --- |
| C[C@H](CO)Nc1nc(SCc2ccccc2F)nc2nc(N)sc12 | 12.6 nM |  |
| C[C@H](CO)Nc1nc(SCc2cccc(F)c2)nc2nc(N)sc12 | 15.8 nM |  |
| C[C@H](CO)Nc1nc(SCc2ccccc2Cl)nc2nc(N)sc12 | 31.6 nM |  |
| C[C@H](CO)Nc1nc(SCc2cccc(Cl)c2Cl)nc2nc(N)sc12 | 15.8 nM |  |
| CC(C)(CO)Nc1nc(SCc2ccco2)nc2nc(N)sc12 | 100 nM |  |
| C[C@H](CO)Nc1nc(SCc2ccco2)nc2nc(N)sc12 | 31.6 nM |  |
| Cc1nc(CSc2nc(NC(C)(C)CO)c3sc(N)nc3n2)cs1 | 1000 nM |  |
| Nc1nc2nc(SCc3cccc(F)c3F)nc(N3CCCC3CO)c2s1 (configuration not stated) | > 1000 nM |  |
| CNc1nc2nc(SCc3cccc(F)c3F)nc(N[C@H](C)CO)c2s1 | 7.94 nM |  |
| CCN(CC)c1nc2nc(SCc3cccc(F)c3F)nc(NC(CO)CO)c2s1 | 1580 nM |  |
| Nc1nc2nc(SCc3cccc(F)c3F)nc(NC(CO)CO)c2s1 | 31.6 nM |  |
| CC[C@H](CO)Nc1nc(SCc2cccc(F)c2F)nc2nc(N)sc12 | 25.1 nM |  |
| CC(C)(CO)Nc1nc(SCc2cccc(F)c2F)nc2nc(N)sc12 | 25.1 nM | fraction unbound [2]: 0.016; Papp [3]: 3.6 ×10⁻⁶ cm/s; IC50 [4]: 15.8 nM |
| C[C@@H](O)[C@@H](CO)Nc1nc(SCc2cccc(F)c2F)nc2nc(N)sc12 | 15.8 nM |  |
| CC(CO)(CO)Nc1nc(SCc2cccc(F)c2F)nc2nc(N)sc12 | 79.4 nM |  |
| Cc1nc(CSc2nc(N[C@H](C)CO)c3sc(N)nc3n2)cs1 | 126 nM |  |
| C[C@H](CO)Nc1nc(SCc2cccc(Cl)c2)nc2nc(N)sc12 | 12.6 nM |  |
| CC[C@H](CO)Nc1nc(SCc2cccc(F)c2F)nc2nc(NC(C)C)sc12 | 100 nM |  |
| CCN(CC)c1nc2nc(SCc3cccc(F)c3F)nc(N[C@H](C)CO)c2s1 | 398 nM |  |
| C[C@H](CO)Nc1nc(SCc2cccc(F)c2F)nc2nc(NC3CC3)sc12 | 20 nM |  |
| C[C@H](CO)Nc1nc(SCc2cccc(F)c2F)nc2nc(N)sc12 |  | Papp B→A [5]: 13.7 ×10⁻⁶ cm/s; half-life [6]: 72 min; bioavailability [7]: 9%; Vd [8]: 1.03 L/kg; solubility [9]: 1.5 µg/mL (≈ 3.91 µM); Papp A→B [10]: 2.47 ×10⁻⁶ cm/s |
| C[C@H](CO)Nc1nc(SCc2cccc(Cl)c2F)nc2nc(N)sc12 | 3.98 nM |  |
| OCC(CO)Nc1nc(SCc2cccc(F)c2F)nc2nc(NC3CC3)sc12 | 100 nM |  |
| CC(C)Nc1nc2nc(SCc3cccc(F)c3F)nc(N[C@H](C)CO)c2s1 | 31.6 nM |  |
